System: G250 antibody
Assay: conformational epitope mapping of carbonic anhydrase IX peptide sections on scaffolds, binding to G250 antibody
Details: core sequences shared by the best-binding peptides
Method: Short peptide sections of CA-IX which bind to the G250 antibody were determined by means of conformational epitope mapping of carbonic anhydrase using the scaffolds shown in FIG. 2. The following 15 sequences were identified as peptide sections having the highest binding capacity: […]

## LSTAFARV [SEQ ID NO:1]
  recognition by G250 antibody (rank of epitope sequence): dominantly recognized
